Source: patent US20170233628A1, “ENZYME DES[…] DES[…] PRODUCING SULFUR CONTAINING COMPOUNDS IN DOWNHOLE FLUIDS” (BAKER HUGHES INCORPORATED, priority 2016, published 2017)

Test system: sulfur producing enzymes
Assay: H2S production (colour of sample) by sterile, enzyme-containing SRB supernatant after treatment with inhibitors
Type: biochemical, sulfate-reducing bacteria (SRBs) from produced water sources
Details: sterile enzyme-containing supernatant in LB, 3 months at 37° C.
Procedure: Now turning to the Figures, FIG. 1 illustrates the ability of sterile solutions to produce hydrogen sulfide (H2S). Six samples were formed with the following procedure. Each sample includes 100 mL of lysogeny broth (LB) ([…] Tryptone, 5 mg/ml yeast extract, 5 mg/mL NaCl, pH 7.5). Sample A is the blank sample, i.e. no sulfur metabolizing enzymes were added. Samples B-D include 0.5 mL of cultured sulfate-reducing bacteria (SRBs) from produced water sources. […]
Sample E includes 0.5 mL of supernatant after the same cultured SRBs were additionally sonicated. A QSonic sonicator sonicated the cultured SRBs for one minute cycles at 70% amplitude. The cell debris was removed via centrifugation at 3000 RPM for 25 minutes. 0.5 mL of the remaining supernatant was added to Sample E.
The remaining supernatant was filtered through a […] pore size PVDF membrane. […]
Samples 1-9 included the same components as that of Sample F from Example 1, i.e. 0.5 mL of the sterile, enzyme-containing, supernatant. […] Samples 1-9 were incubated at 37° C. and monitored periodically. […]

| SMILES | inactivation of sulfur producing enzymes |
| --- | --- |
| NC(=O)CI [Iodoacetamide, iodoacetamide] | effective in permanently inactivating enzymes |
| CCCCCCCCCCCCOS(=O)(=O)[O-].[Na+] [SDS, sodium dodecyl sulfate] | effective in permanently inactivating enzymes |
